In the first assay the target is T1, Prothrombin (Homo sapiens, UniProt P00734). The assay is described as follows: Inhibition of human thrombin.
For the compound `COC1C[C@@H]2C(=O)N[C@H](CCCN=C(N)N)C(=O)C(=O)NCCCCCCCC(=O)N[C@@H](Cc3ccccc3)C(=O)N2C1` (stereo not given in full), affinity was put at a Ki of 159 nM.
Still for that read-out and setting: the result for `N=C(N)NCCC[C@H]1NC(=O)[C@H]2CCCN2C(=O)[C@H](Cc2ccccc2)NC(=O)CCCCCCCCCCNC(=O)C1=O` (single isomer, unassigned) reads 15 nM; that for `N=C(N)NCCC[C@H]1NC(=O)[C@H]2CCCN2C(=O)[C@H](Cc2ccccc2)NC(=O)CCCCCCCNC(=O)C1=O` (single isomer, unassigned), 24 nM; that for `N=C(N)NCCC[C@H]1NC(=O)[C@H]2CCCN2C(=O)[C@H](Cc2ccccc2)NC(=O)CCCCCNC(=O)[C@H](CCc2ccccc2)NC(=O)C1=O` (single isomer, unassigned), 3.1 nM.
On the same count and under the same terms, the figure for `N=C(N)NCCC[C@H]1NC(=O)[C@H]2CCCN2C(=O)[C@H](Cc2ccccc2)NC(=O)CCCCCCCCCNC(=O)C1=O` (single isomer, unassigned) is 9.9 nM; for `N=C(N)NCCC[C@H]1NC(=O)[C@H]2CCCN2C(=O)[C@H](Cc2ccccc2)NC(=O)CCCCCNC(=O)[C@H](CC(c2ccccc2)c2ccccc2)NC(=O)C1=O` (single isomer, unassigned) it is 5.3 nM; for `N=C(N)NCCC[C@H]1NC(=O)[C@H]2CCCCN2C(=O)[C@H](Cc2ccccc2)NC(=O)CCCCCCCNC(=O)C1=O` (single isomer, unassigned) it is 86 nM.
Turning to `N=C(N)NCCC[C@H]1NC(=O)[C@H]2CCCN2C(=O)[C@H](Cc2ccccc2)NC(=O)CCCCCCNC(=O)C1=O` (single isomer, unassigned), the affinity, expressed as Ki, was 1800 nM.
For the compound `N=C(N)NCCC[C@H]1NC(=O)[C@H]2CCCN2C(=O)[C@H](c2ccccc2)NC(=O)CCCCCCCNC(=O)C1=O` (single isomer, unassigned), affinity was put at a Ki of 163 nM. This Ki lies about 11-fold lower than the previous one.
Consider `N=C(N)NCCC[C@H]1NC(=O)[C@H]2CCCN2C(=O)[C@H](Cc2ccccc2)NC(=O)CCCCCNC(=O)C1=O` (single isomer, unassigned), for which the Ki (in general, a measure of affinity in units of concentration, obtained from inhibition or displacement) was determined as 473 nM.
`N=C(N)NCCC[C@H]1NC(=O)[C@H]2CCCN2C(=O)[C@H](CCc2ccccc2)NC(=O)CCCCCCCNC(=O)C1=O` (single isomer, unassigned) returned a Ki of 20 nM.
On to `N=C(N)NCCC[C@H]1NC(=O)[C@H]2CCCN2C(=O)[C@H](NC=O)CNC(=O)/C=C\[C@@H](Cc2ccc(O)cc2)NC(=O)[C@H](Cc2ccccc2)NC(=O)C1=O` [MACROCYCLIC TRIPEPTIDE MOTIF], for which the affinity corresponds to a Ki of 4.1 nM.

The next assay has as its target T1, Prothrombin. The assay is described as follows: Compound was evaluated for inhibition of human thrombin at a concentration of 50 uM; Not active.
Consider `N=C(N)NCCC[C@H]1NC(=O)[C@H]2CCCN2C(=O)[C@H](CCc2ccccc2)NC(=O)CCCCCCCNC(=O)C1O` (stereo not given in full), for which the Ki entry is recorded as “Not Active”.

The target of the next assay is T2, Serine protease 1 (Bos taurus, UniProt P00760).
T2 sequence (P00760 whole entry): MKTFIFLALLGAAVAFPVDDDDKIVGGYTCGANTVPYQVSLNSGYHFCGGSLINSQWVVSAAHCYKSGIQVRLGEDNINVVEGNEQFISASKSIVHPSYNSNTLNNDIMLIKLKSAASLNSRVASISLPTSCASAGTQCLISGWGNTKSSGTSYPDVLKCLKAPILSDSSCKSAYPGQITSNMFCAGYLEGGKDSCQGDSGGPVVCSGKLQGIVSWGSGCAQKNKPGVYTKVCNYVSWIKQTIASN
Put plainly: Inhibition of bovine trypsin.
`COC1C[C@@H]2C(=O)N[C@H](CCCN=C(N)N)C(=O)C(=O)NCCCCCCCC(=O)N[C@@H](Cc3ccccc3)C(=O)N2C1` (stereo not given in full) displayed a Ki of 13 nM.
In turn, `N=C(N)NCCC[C@@H]1NC(=O)[C@@H]2CCCN2C(=O)[C@@H](Cc2ccccc2)NC(=O)CCCCCCCCCCNC(=O)C1=O` (single isomer, unassigned) had a Ki of 25 nM.
In turn, `N=C(N)NCCC[C@@H]1NC(=O)[C@@H]2CCCN2C(=O)[C@@H](Cc2ccccc2)NC(=O)CCCCCCCNC(=O)C1=O` (single isomer, unassigned) showed a Ki of 10 nM.
Consider `N=C(N)NCCC[C@@H]1NC(=O)[C@@H]2CCCN2C(=O)[C@@H](Cc2ccccc2)NC(=O)CCCCCNC(=O)[C@@H](CCc2ccccc2)NC(=O)C1=O` (single isomer, unassigned), for which the Ki was found to be 5.2 nM. This Ki is about 1.9-fold lower than that of the compound before.
The same measure, in the same setting: the result for `N=C(N)NCCC[C@@H]1NC(=O)[C@@H]2CCCN2C(=O)[C@@H](Cc2ccccc2)NC(=O)CCCCCCCCCNC(=O)C1=O` (single isomer, unassigned) reads 2.1 nM; that for `N=C(N)NCCC[C@@H]1NC(=O)[C@@H]2CCCN2C(=O)[C@@H](Cc2ccccc2)NC(=O)CCCCCNC(=O)[C@@H](CC(c2ccccc2)c2ccccc2)NC(=O)C1=O` (single isomer, unassigned), 2.5 nM; that for `N=C(N)NCCC[C@@H]1NC(=O)[C@@H]2CCCCN2C(=O)[C@@H](Cc2ccccc2)NC(=O)CCCCCCCNC(=O)C1=O` (single isomer, unassigned), 66 nM.
`N=C(N)NCCC[C@@H]1NC(=O)[C@@H]2CCCN2C(=O)[C@@H](Cc2ccccc2)NC(=O)CCCCCCNC(=O)C1=O` (single isomer, unassigned) gave an inhibitory constant (Ki) of 280 nM.
Still for that read-out and setting: the result for `N=C(N)NCCC[C@@H]1NC(=O)[C@@H]2CCCN2C(=O)[C@@H](c2ccccc2)NC(=O)CCCCCCCNC(=O)C1=O` (single isomer, unassigned) reads 11 nM.
Compound `N=C(N)NCCC[C@@H]1NC(=O)[C@@H]2CCCN2C(=O)[C@@H](Cc2ccccc2)NC(=O)CCCCCNC(=O)C1=O` (single isomer, unassigned) came in with an inhibition constant Ki of 710 nM.
As to `N=C(N)NCCC[C@@H]1NC(=O)[C@@H]2CCCN2C(=O)[C@@H](CCc2ccccc2)NC(=O)CCCCCCCNC(=O)C1=O` (single isomer, unassigned), the inhibition constant (Ki) came to 14 nM. This Ki is about 51-fold lower than that of the compound before.
Still for that read-out and setting: the result for `N=C(N)NCCC[C@@H]1NC(=O)[C@@H]2CCCN2C(=O)[C@@H](NC=O)CNC(=O)/C=C\[C@@H](Cc2ccc(O)cc2)NC(=O)[C@@H](Cc2ccccc2)NC(=O)C1=O` [MACROCYCLIC TRIPEPTIDE MOTIF] reads 1 nM.

The values above are taken from ChEMBL document CHEMBL1128948, “Novel thrombin inhibitors that are based on a macrocyclic tripeptide motif” (Bioorg Med Chem Lett, 1996).
